Results published in paper PMC12040169 (PLOS Biology, 2025).

Assay: in vitro
Conditions: human, hela cells, % viability

c1ccc2c(c1)OCC(COc1ccnc(N3CCCN(CCN4CCOCC4)CC3)n1)O2 (stereo not drawn) [CBK083976]
viability at 28.5 h, 10 µM: 116%

CSCCN1CCCN(c2nccc(OCC3COc4ccccc4O3)n2)CC1 (stereo not drawn) [CBK083978]
viability at 28.5 h, 10 µM: 91.1%

c1ccc(OCCN2CCCN(c3nccc(OCC4COc5ccccc5O4)n3)CC2)cc1 (stereo not drawn) [CBK083980]
viability at 28.5 h, 10 µM: 94%

c1ccc2c(c1)OCC(COc1ccnc(N3CCCN(CC4CCCCC4)CC3)n1)O2 (stereo not drawn) [CBK083982]
viability at 28.5 h, 10 µM: 115%

COc1ccnc(N2CCCN(CCc3ccc(OC)c(OC)c3)CC2)n1 [CBK084002]
viability at 28.5 h, 10 µM: 85%

CS(=O)(=O)N1CC2(CCN(Cc3ccccc3)CC2)c2ccccc21 [CBK084003]
viability at 28.5 h, 10 µM: 89.9%

CS(=O)(=O)N1CC2(CCN(Cc3cccnc3)CC2)c2ccccc21 [CBK084006]
viability at 28.5 h, 10 µM: 98.1%

CS(=O)(=O)N1CC2(CCN(CCCC#N)CC2)c2ccccc21 [CBK084014]
viability at 28.5 h, 10 µM: 97.9%

CS(=O)(=O)N1CC2(CCN(CCc3ccccc3)CC2)c2ccccc21 [CBK084015]
viability at 28.5 h, 10 µM: 88.3%

Cc1cc(COc2ccnc(N3CCCN(CC(N)=O)CC3)n2)no1 [CBK084036]
viability at 28.5 h, 10 µM: 85.9%

NC(=O)CN1CCCN(c2nccc(OCC3COc4ccccc4O3)n2)CC1 (stereo not drawn) [CBK084041]
viability at 28.5 h, 10 µM: 115%

CCN(CC)C(=O)CN1CCCN(c2nccc(OCCN3CCOCC3)n2)CC1 [CBK084094]
viability at 28.5 h, 10 µM: 99.5%

CS(=O)(=O)N1CC2(CCN(CCc3ccc(F)cc3)CC2)c2ccccc21 [CBK084103]
viability at 28.5 h, 10 µM: 93.3%

COc1ccnc(N2CCCN(CCCC#N)CC2)n1 [CBK084124]
viability at 28.5 h, 10 µM: 88.4%

COc1ccc(Oc2nccc(N3CCCN(Cc4ccc(C(F)(F)F)cc4)CC3)n2)cc1OC [CBK084152]
viability at 28.5 h, 10 µM: 98.2%

COc1ccc(Oc2nccc(N3CCCN(CCCO)CC3)n2)cc1OC [CBK084158]
viability at 28.5 h, 10 µM: 93.5%

Cc1cc(COc2nccnc2N2CCN(Cc3ccc(C(C)C)cc3)CC2)no1 [CBK084186]
viability at 28.5 h, 10 µM: 94.9%

Cc1cc(COc2nccnc2N2CCN(Cc3ccc([N+](=O)[O-])cc3)CC2)no1 [CBK084189]
viability at 28.5 h, 10 µM: 92%

Cc1cc(COc2nccnc2N2CCN(CCCC#N)CC2)no1 [CBK084198]
viability at 28.5 h, 10 µM: 93.5%

Cc1cc(COc2nccnc2N2CCN(CC3CCCCC3)CC2)no1 [CBK084205]
viability at 28.5 h, 10 µM: 94.2%

COc1ccc(CN2CCN(c3nccnc3OC)CC2)cc1 [CBK084216]
viability at 28.5 h, 10 µM: 89.6%

COc1nccnc1N1CCN(CC(N)=O)CC1 [CBK084219]
viability at 28.5 h, 10 µM: 98.4%

CCN(CC)C(=O)CN1CCN(c2nccnc2OC)CC1 [CBK084221]
viability at 28.5 h, 10 µM: 83.9%

COc1nccnc1N1CCN(CCCn2c(=O)[nH]c3ccccc32)CC1 [CBK084226]
viability at 28.5 h, 10 µM: 95.8%

COc1nccnc1OC1CCN(Cc2ccc(C(F)(F)F)cc2)CC1 [CBK084243]
viability at 28.5 h, 10 µM: 79.3%

COc1nccnc1OC1CCN(CC(N)=O)CC1 [CBK084248]
viability at 28.5 h, 10 µM: 86.7%

COc1nccnc1OC1CCN(CCCO)CC1 [CBK084254]
viability at 28.5 h, 10 µM: 97.6%

COc1nccnc1OC1CCN(CCc2ccccc2)CC1 [CBK084258]
viability at 28.5 h, 10 µM: 95%

COc1nccnc1OC1CCN(CCc2ccc(F)cc2)CC1 [CBK084259]
viability at 28.5 h, 10 µM: 102%

COc1nccnc1OC1CCN(CCc2ccc3ccccc3c2)CC1 [CBK084264]
viability at 28.5 h, 10 µM: 107%

CS(=O)(=O)Nc1nccnc1N1CCN(Cc2ccc(Cl)c(Cl)c2)CC1 [CBK084267]
viability at 28.5 h, 10 µM: 98.7%

CS(=O)(=O)Nc1nccnc1N1CCN(Cc2ccc([N+](=O)[O-])cc2)CC1 [CBK084274]
viability at 28.5 h, 10 µM: 103%

CS(=O)(=O)Nc1nccnc1OC1CCN(CCCO)CC1 [CBK084275]
viability at 28.5 h, 10 µM: 90.9%

CS(=O)(=O)Nc1nccnc1OC1CCN(CCCC#N)CC1 [CBK084276]
viability at 28.5 h, 10 µM: 99.4%

CS(=O)(=O)Nc1nccnc1OC1CCN(CCCn2c(=O)[nH]c3ccccc32)CC1 [CBK084277]
viability at 28.5 h, 10 µM: 91.8%

CS(=O)(=O)Nc1nccnc1OC1CCN(CCc2ccccc2)CC1 [CBK084279]
viability at 28.5 h, 10 µM: 98.3%

CS(=O)(=O)Nc1nccnc1OC1CCN(CCc2c[nH]c3ccccc23)CC1 [CBK084282]
viability at 28.5 h, 10 µM: 119%

O=C1CCC(=O)N1CCOc1nccnc1N1CCN(Cc2ccc(Cl)c(Cl)c2)CC1 [CBK084287]
viability at 28.5 h, 10 µM: 92.9%

O=C1CCC(=O)N1CCOc1nccnc1N1CCN(Cc2ccc([N+](=O)[O-])cc2)CC1 [CBK084294]
viability at 28.5 h, 10 µM: 93%

CCN(CC)C(=O)CN1CCN(c2nccnc2OCCN2C(=O)CCC2=O)CC1 [CBK084297]
viability at 28.5 h, 10 µM: 102%

O=C1CCC(=O)N1CCOc1nccnc1N1CCN(CCCn2c(=O)[nH]c3ccccc32)CC1 [CBK084300]
viability at 28.5 h, 10 µM: 110%

CSCCN1CCN(c2nccnc2OCCN2C(=O)CCC2=O)CC1 [CBK084301]
viability at 28.5 h, 10 µM: 105%

Nc1ccc(-c2ccc(OC(F)(F)F)cc2)c2ccccc12 [CBK084327]
viability at 28.5 h, 10 µM: 84.6%

O=C1CCC(=O)N1CCOc1nccnc1OC1CCN(Cc2ccc(Cl)c(Cl)c2)CC1 [CBK084335]
viability at 28.5 h, 10 µM: 96.2%

O=C1CCC(=O)N1CCOc1nccnc1OC1CCN(Cc2ccccc2F)CC1 [CBK084337]
viability at 28.5 h, 10 µM: 96.4%
